Where two headings read alike, the source gives them in different places.
Legend:
[1] = biological target: His-tagged KRAS G12D protein (Homo sapiens, UniProt P01116, G12D); experiment: KRAS G12D TR-FRET assay (binding); conditions: biotinylated KRPep-2d substrate, GDP in assay buffer
[2] = test system: Phosphorylation of ERK1/2 in AsPC-1 cells; experiment: Phospho-ERK1/2 MSD assay; type: cell-based
Procedure: Sixteen hours prior to compound treatment, AsPC-1 cells were seeded in 96-well cell culture plates at a density of 25,000 cells/well and incubated at 37° C., 5% CO2. A compound dose-response titration was diluted in growth media, added to appropriate wells of a cell culture plate, and then incubated at 37° C., 5% CO2 for 2 hours.

[3] = Homo sapiens, ASPC1, read-out: 2 h p-ERK (AsPC-1 cells), IC50 (μM), 2 hours compound treatment

His-tagged KRAS G12D protein, sequence (P01116 1-188 isoform P01116-2 G12D): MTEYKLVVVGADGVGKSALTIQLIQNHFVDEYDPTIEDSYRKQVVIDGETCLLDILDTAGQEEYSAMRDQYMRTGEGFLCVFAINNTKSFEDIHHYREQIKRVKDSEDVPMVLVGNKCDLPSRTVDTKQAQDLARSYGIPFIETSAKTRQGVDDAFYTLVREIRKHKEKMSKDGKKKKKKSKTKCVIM

IC50 [1] [nM]	IC50 [2, 3] [µM]	Structure (SMILES)	IC50 ([2]; read-out: 2 h p-ERK (AsPC-1 cells), IC50, 2 hours compound treatment) [µM]
79	1.77	CCc1c(F)ccc2cc(O)cc(-c3ncc4c(N5C[C@@H]6CC[C@@H]5CO6)nc(OC[C@@]56CCCN5C[C@H](F)C6)nc4c3F)c12 [Example 28, 4-(4-((1S,4R)-2-Oxa-5-azabicyclo[2.2.2]octan-5-yl)-8-fluoro-2-(((2R,7aS)-2-fluorotetrahydro-1H-pyrrolizin-7a(5H)-yl)methoxy)pyrido [4,3-d]pyrimidin-7-yl)-5-ethyl-6-fluoronaphthalen-2-ol]	
13	0.966	CCc1cccc2cc(O)cc(-c3ncc4c(N5CCCOCC5)nc(OC[C@@H]5C[C@@H](F)CN5C)nc4c3F)c12 [Example 32, 5-Ethyl-4-(8-fluoro-2-(((2S,4R)-4-fluoro-1-methylpyrrolidin-2-yl)methoxy)-4-(1,4-oxazepan-4-yl)pyrido[4,3-d]pyrimidin-7-yl)naphthalen-2-ol]	
1	0.393	CCc1c(F)ccc2cc(O)cc(-c3ncc4c(N5CC[S+]([O-])CC5)nc(OC[C@@]56CCCN5C[C@H](F)C6)nc4c3F)c12 [Example 34, 4-(7-(8-Ethyl-7-fluoro-3-hydroxynaphthalen-1-yl)-8-fluoro-2-(((2R,7aS)-2-fluorotetrahydro-1H-pyrrolizin-7a(5H)-yl)methoxy)pyrido[4,3-d]pyrimidin-4-yl)thiomorpholine 1-oxide]	
57	> 10	CCc1c(F)ccc2cc(O)cc(-c3ncc4c(N5CCS(=N)(=O)CC5)nc(OC[C@@]56CCCN5C[C@H](F)C6)nc4c3F)c12 [Example 35, 4-(7-(8-Ethyl-7-fluoro-3-hydroxynaphthalen-1-yl)-8-fluoro-2-(((2R,7aS)-2-fluorotetrahydro-1H-pyrrolizin-7a(5H)-yl)methoxy)pyrido[4,3-d]pyrimidin-4-yl)-1-imino-1 λ^6-thiomorpholine 1-oxide]	
1	0.651	CCc1c(F)ccc2cc(O)cc(-c3ncc4c(N5CCC[S+]([O-])CC5)nc(OC[C@@]56CCCN5C[C@H](F)C6)nc4c3F)c12 (stereo partly drawn) [Example 36, 4-(7-(8-Ethyl-7-fluoro-3-hydroxynaphthalen-1-yl)-8-fluoro-2-(((2R,7aS)-2-fluorotetrahydro-1H-pyrrolizin-7a(5H)-yl)methoxy)pyrido[4,3-d]pyrimidin-4-yl)-1,4-thiazepane 1-oxide]	
11	2.66	CCc1c(F)ccc2cc(O)cc(-c3ncc4c(N5CCCS(=O)(=O)CC5)nc(OC[C@@]56CCCN5C[C@H](F)C6)nc4c3F)c12 [Example 37, 4-(7-(8-Ethyl-7-fluoro-3-hydroxynaphthalen-1-yl)-8-fluoro-2-(((2R,7aS)-2-fluorotetrahydro-1H-pyrrolizin-7a(5H)-yl)methoxy)pyrido[4,3-d]pyrimidin-4-yl)-1,4-thiazepane 1,1-dioxide]	
21	> 10	CCc1c(F)ccc2cc(O)cc(-c3ncc4c(N5CCCS(=N)(=O)CC5)nc(OC[C@@]56CCCN5C[C@H](F)C6)nc4c3F)c12 (stereo partly drawn) [Example 38, 4-(7-(8-Ethyl-7-fluoro-3-hydroxynaphthalen-1-yl)-8-fluoro-2-(((2R,7aS)-2-fluorotetrahydro-1H-pyrrolizin-7a(5H)-yl)methoxy)pyrido[4,3-d]pyrimidin-4-yl)-1-imino-1 λ^6,4-thiazepane 1-oxide]	
5	0.171	CCc1c(F)ccc2cc(O)cc(-c3ncc4c(N5CCOC[C@@H](OC)C5)nc(OC[C@@]56CCCN5C[C@H](F)C6)nc4c3F)c12 [Example 39, 5-Ethyl-6-fluoro-4-(8-fluoro-2-(((2R,7aS)-2-fluorotetrahydro-1H-pyrrolizin-7a(5H)-yl)methoxy)-4-((S)-6-methoxy-1,4-oxazepan-4-yl)pyrido[4,3-d]pyrimidin-7-yl)naphthalen-2-ol]	
6	6.23	CCc1c(F)ccc2cc(O)cc(-c3ncc4c(N5CCCOC(C(N)=O)C5)nc(OC[C@@]56CCCN5C[C@H](F)C6)nc4c3F)c12 (stereo partly drawn) [Example 51, 4-(7-(8-Ethyl-7-fluoro-3-hydroxy-naphthalen-1-yl)-8-fluoro-2-(((2R, 7aS)-2-fluorotetra-hydro-1H-pyrrol-zin-7a(5H)-yl)-methoxy)pyrido [4,3-d]pyrimidin-4-yl)-1,4-oxazepane-2-carboxamide]	
33	1.28	CCc1c(F)ccc2cc(O)cc(-c3ncc4c(N5CCO[C@H](C)C5)nc(OC[C@@]56CCCN5C[C@H](F)C6)nc4c3F)c12 [Example 52, 5-Ethyl-6-fluoro-4-(8-fluoro-2-(((2R,7aS)-2-fluorotetrahydro-1H-pyrrolizin-7a(5H)-yl)meth-oxy)-4-((R)-2-methylmorpho-lino)-pyrido[4,3-d]pyrimidin-7-yl)-naphthalen-2-ol]	
39	1.24	CCc1c(F)ccc2cc(O)cc(-c3ncc4c(N5CCO[C@@H](COC)C5)nc(OC[C@@]56CCCN5C[C@H](F)C6)nc4c3F)c12 [Example 53, 5-Ethyl-6-fluoro-4-(8-fluoro-2-(((2R, 7aS)-2-fluorotetra-hydro-1H-pyrrol-izin-7a(5H)-yl)-methoxy)-4-((R)-2-(methoxymeth-yl)morpholino)pyr-ido[4,3-d]pyrimi-din-7-yl)naph-thalen-2-ol]	
3	0.081	CCc1c(F)ccc2cc(O)cc(-c3ncc4c(N5CCCOC(CO)C5)nc(OC[C@@]56CCCN5C[C@H](F)C6)nc4c3F)c12 (stereo partly drawn) [Example 56, 5-Ethyl-6-fluoro-4-(8-fluoro-2-(((2R, 7aS)-2-fluorotetra-hydro-1H-pyrrol-izin-7a(5H)-yl)-methoxy)-4-(2-(hydroxymethyl)-1,4-oxazepan-4-yl)pyrido[4,3-d]pyrimidin-7-yl)-naphthalen-2-ol]	
13	5.95	CCc1c(F)ccc2cc(O)cc(-c3ncc4c(N5CCOC(CO)CC5)nc(OC[C@@]56CCCN5C[C@H](F)C6)nc4c3F)c12 (stereo partly drawn) [Example 57, 5-Ethyl-6-fluoro-4-(8-fluoro-2-(((2R, 7aS)-2-fluorotetra-hydro-1H-pyrrolizin-7a(5H)-yl)methoxy)-4-(7-(hydroxymeth-yl)-1,4-oxazepan-4-yl)pyrido[4,3-d]pyrimidin-7-yl)-naphthalen-2-ol]	
14	3.63	CCc1c(F)ccc2cc(O)cc(-c3ncc4c(N5CC6CC5CS6(=O)=O)nc(OC[C@@]56CCCN5C[C@H](F)C6)nc4c3F)c12 (stereo partly drawn) [Example 59, 5-(7-(8-Ethyl-7-fluoro-3-hydroxy-naphthalen-1-yl)-8-fluoro-2-(((2R,7aS)-2-fluorotetrahydro-1H-pyrrolizin-7a(5H)-yl)meth-oxy)pyrido[4,3-d]pyrimidin-4-yl)-2-thia-5-azabicyclo [2.2.1]heptane 2,2-dioxide]	
3	0.193	CCc1c(F)ccc2cc(O)cc(-c3ncc4c(N5CCOCC(C#N)C5)nc(OC[C@@]56CCCN5C[C@H](F)C6)nc4c3F)c12 (stereo partly drawn) [Example 61, 4-(7-(8-Ethyl-7-fluoro-3-hydroxy-naphthalen-1-yl)-8-fluoro-2-(((2R,7aS)-2-fluorotetrahydro-1H-pyrrolizin-7a(5H)-yl)meth-oxy)-pyrido[4,3-d]pyrimidin-4-yl)-1,4-oxazepane-6-carbonitrile]	
1	0.07	CCc1c(F)ccc2cc(O)cc(-c3ncc4c(N5CCCS(=O)(=O)C5)nc(OC[C@@]56CCCN5C[C@H](F)C6)nc4c3F)c12 [Example 62, 3-(7-(8-Ethyl-7-fluoro-3-hydroxy-naphthalen-1-yl)-8-fluoro-2-(((2R,7aS)-2-fluorotetrahydro-1H-pyrrolizin-7a(5H)-yl)meth-oxy)pyrido[4,3-d]pyrimidin-4-yl)-1,3-thiazinane 1,1-dioxide]	
5	1.38	CCc1c(F)ccc2cc(O)cc(-c3ncc4c(N5CCOCC(S(N)(=O)=O)C5)nc(OC[C@@]56CCCN5C[C@H](F)C6)nc4c3F)c12 (stereo partly drawn) [Example 63, 4-(7-(8-Ethyl-7-fluoro-3-hydroxy-naphthalen-1-yl)-8-fluoro-2-(((2R,7aS)-2-fluorotetrahydro-1H-pyrrolizin-7a(5H)-yl)meth-oxy)pyrido[4,3-d]pyrimidin-4-yl)-1,4-oxazepane-6-sulfonamide]	
15	0.592	CCc1c(F)ccc2cc(O)cc(-c3ncc4c(N5CCOC6CC65)nc(OC[C@@]56CCCN5C[C@H](F)C6)nc4c3F)c12 (stereo partly drawn) [Example 66, 4-(4-((1R,6S)-2-oxa-5-azabicyclo[4.1.0]heptan-5-yl)-8-fluoro-2-(((2R,7aS)-2-fluorotetrahydro-1H-pyrrolizin-7a(5H)-yl)methoxy)-pyrido[4,3-d]pyrim-idin-7-yl)-5-ethyl-6-fluoronaphthalen-2-ol]	
2	0.072	CCc1c(F)ccc2cc(O)cc(-c3ncc4c(N5CCOCC(=O)C5)nc(OCC56CCCN5CC(F)C6)nc4c3F)c12 [Example 67, 4-(7-(8-ethyl-7-fluoro-3-hydroxy-naphthalen-1-yl)-8-fluoro-2-(((2R,7aS)-2-fluorotetrahydro-1H-pyrrolizin-7a(5H)-yl)methoxy)-pyrido[4,3-d]pyrim-idin-4-yl)-1,4-oxazepan-6-one]	

Structure (SMILES)	IC50 [1] [nM]	IC50 [2, 3] [µM]	IC50 ([2]; read-out: 2 h p-ERK (AsPC-1 cells), IC50, 2 hours compound treatment) [µM]
CCc1c(F)ccc2cc(O)cc(-c3ncc4c(N5CCOC[C@H](CO)C5)nc(OC[C@@]56CCCN5C[C@H](F)C6)nc4c3F)c12 [Example 49, 5-Ethyl-6-fluoro-4-(8-fluoro-2-(((2R, 7aS)-2-fluorotetra-hydro-1H-pyrrol-izin-7a(5H)-yl)-methoxy)-4-((S)-6-(hydroxymethyl)-1,4-oxazepan-4-yl)-pyrido[4,3-d]pyr-imidin-7-yl)naph-thalen-2-ol]	13		0.889

Reference: US20250122222A1, “HETEROCYCLIC COMPOUNDS AND METHODS OF USE” (AMGEN INC., priority 2021, published 2025)
